Values of other authors, collected in US20120263775A1, “PRODUCTION OF PESTICIDE GRANULATES IN A SPOUTED BED APPARATUS” (priority 2009, published 2012).
In brackets after ≈: the same amount, converted by molar mass.

## COC(=O)N(OC)c1ccccc1COc1ccn(-c2ccc(Cl)cc2)n1 [Pyraclostrobin, pyraclostrobin]
  solubility in water: 2 µg/mL (≈ 5.16 µM)
